Test results from patent publication US12391751B2, “Antibody against advanced glycation end products and use thereof” (Bloom Technology Corporation, priority 2018, dated 2025).

Assays:
[1] = test system: POD-labeled novel monoclonal antibody (SJ-5); assay: Competitive ELISA of GAL691 and Lys-hydroxy-triosidine against SJ-5 (Example 18); format: binding, mouse; conditions: immobilized Glycer-AGEs-BSA; competitor 0.625 to 10 mg/mL
Procedure: A solution of BSA containing AGEs derived from glyceraldehyde (stock solution: 10 mg/mL PBS solution) prepared into 1 μg/mL in a coating solution was added at 100 μL/well to a 96-well microtiter plate (COSTAR) and incubated overnight at 4° C.
(§1) Each well after the immobilization treatment was washed three times with a washing solution (300 μL), and a blocking solution (200 μL) was added thereto and left at room temperature for 1 hour.
GAL691 (prepared in Example 16) and Lys-hydroxy-triosidine (prepared in Example 17) were each dissolved in a phosphate buffer solution (0.2 M, pH 7.4) to prepare a 10 mg/mL solution. Sample solutions of 2-fold dilution series from 0.625 to 10 mg/ml (5 points) were further prepared by dilution with a diluting solution. Dilution solutions were also prepared from a blank solution containing no sample in the same way as above. […]
(§2) Absorbance was measured at a dominant wavelength of 450 nm and a sub-wavelength of 650 nm with a microplate reader (Cytation 5, BioTek Instrument Inc.), and the absorbance at the sub-wavelength was subtracted from the absorbance at the dominant wavelength. Change in the absorbance of GAL691 and Lys-hydroxy-triosidine was indicated as relative values to the absorbance of the blank solution.

PB-1 antibody = assay: Competitive ELISA of GAL691 and known AGEs against PB-1 (Example 31); format: binding, mouse; conditions: immobilized A-peak-BSA; competitor 0.04 to 2.5 mM; PB-1 0.1 μg/mL
Procedure: Competitive ELISA was conducted using the reagents described in Example 13. A solution of A-peak-BSA prepared into 1 μg/mL in a coating solution was added at 100 μL/well to a 96-well microtiter plate (Costar) and incubated overnight at 4° C.
as §1
GAL691 (prepared in Example 16), GLAP (prepared in Example 12), Lys-hydroxy-triosidine (prepared in Example 17), GA-pyridine (prepared in Example 28), GOLD (prepared in Example 29), and Z-Lys were each dissolved in a phosphate buffer solution (0.2 M, pH 7.4) to prepare a 100 mM solution. Then, a 10 mM solution was prepared by dilution 10-fold with a diluting solution containing BSA (1 mg/mL, FUJIFILM Wako Pure Chemical Corp.). Sample solutions of 4-fold dilution series of 0.04, 0.16, 0.63, and 2.5 mM were further prepared with a diluting solution containing a 10% (v/v) phosphate buffer solution and 1 mg/mL BSA. Ten-fold dilutions of a phosphate buffer solution with a diluting solution containing 1 mg/mL BSA were prepared as blank solutions containing no sample in the same way as above. A 0.1 μg/mL solution of the PB-1 antibody was prepared with a diluting solution containing 1 mg/mL BSA.
Each well treated with the blocking solution was washed three times with a washing solution (300 μL), and the sample solutions of 4-fold dilution series (50 μL each) and the PB-1 antibody dilution solution (50 μL) were added thereto, stirred with a plate mixer for 2 minutes, and then incubated at room temperature for 1 hour.
After the competitive reaction, each well was washed three times with a washing solution (300 μL), and peroxidase-labeled anti-mouse IgG (H+L) polyclonal antibody, F(ab′)2 fragment (Kirkegaard & Perry Laboratories, Inc.) diluted into 0.05 μg/mL with a diluting solution containing 1 mg/mL BSA was added at 100 μL/well and left standing at room temperature for 1 hour.
After washing three times with a washing solution (300 μL), a substrate solution (ELISA POD substrate TMB kit (Popular), Nacalai Tesque, Inc.) was added at 100 μL/well and incubated at room temperature for 10 minutes under light shielding. Then, color development was terminated by the addition of 2 N sulfuric acid (50 μL).
as §2, with “GAL691, GLAP, Lys-hydroxy-triosidine, GA-pyridine, GOLD,” for “GAL691”, “Z-Lys” for “Lys-hydroxy-triosidine”

[2] = Formation of singlet oxygen through photosensitizing effect, ESR with 4-OH-TEMP (Examples 21, 22); conditions: astaxanthin final concentration 2.5 mM; blue light
Procedure: 25 μL of GAL691 or Z-Lys(Z)-OH (10 mM, PBS solution), 12.5 μL of 4-hydroxy-2,2,6,6-tetramethylpiperidine (4-OH-TEMP; Tokyo Chemical Industry Co., Ltd., 400 mM, PBS solution), and 12.5 μL of PBS were mixed in a 0.6 mL microtube (Watson) to prepare a reaction solution. 4-OH-TEMP changes into a nitroxide radical by capturing singlet oxygen and is therefore often utilized in the detection of singlet oxygen using ESR (Nakamura et al., J. Clin. Biochem. Nutr., 2011, 49 (2), 87-95). The reaction solution was irradiated with light at UV 365 nm, blue 470 nm, green 530 nm, or red 630 nm for 1 hour using a portable LED light source (MeCan Imaging Inc.). Then, ESR measurement was performed using a portion (50 μL) of each reaction solution. The ESR measurement was carried out under the same conditions as in Example 10 except for some parameters. The changed measurement parameters are as follows: […]
In order to quantify the concentration of the formed nitroxide radical, the following analysis was conducted: the spectrum of the observed nitroxide radical was first simulated with SpinFit module in Xepr software (Bruker Corp.) to identify a radical species (g=2.0058, I=1, AN=17.05 G). Then, the spin concentration (μM) of the simulated nitroxide radical was determined with SpinCount module. […]

Compound	change in absorbance relative to blank (competition for SJ-5 binding) [1]	change in absorbance relative to blank (competition for PB-1 binding) (PB-1 antibody)	capture of singlet oxygen generated by GAL691 and light irradiation [2]
CC(=O)NC(CCCCNCc1cc(O)c[n+](CCCCC(NC(C)=O)C(=O)O)c1)C(=O)O (stereo not drawn) [Lys-hydroxy-triosidine]	no reduction in absorbance was observed	no reduction in absorbance was observed	–
CC1=C(/C=C/C(C)=C/C=C/C(C)=C/C=C/C=C(C)/C=C/C=C(C)/C=C/C2=C(C)C(=O)[C@@H](O)CC2(C)C)C(C)(C)C[C@H](O)C1=O [astaxanthin]	–	–	captured
